The values below come from PubChem BioAssay (NCI).

What all share (assay): DTP human tumour cell line panel, 48 h
Experiment [1] deals with LXFL 529 NSCLC.
For experiment [2], the system named is DMS 273 small cell lung.
Experiment [3] concerns SNB-78 CNS.
The test system of experiment [4] is KM20L2 colon.
The subject of experiment [5] is M19-MEL melanoma.
For experiment [6], the system named is XF 498 CNS.
Experiment [7] deals with T-47D breast.
For experiment [8], the system named is MDA-N.

Values joined by “and” are separate entries in the source; they are usually repeats but may differ in a detail not shown here. Equal values may be shown once.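 Five compound concentrations were applied to cells in 96-well plates for 48 hours; endpoints were derived by simple linear interpolation of the resulting dose-response curve. Abbreviation: GI50, concentration required for 50% inhibition of growth. TGI is the concentration that stops growth completely.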

The term TGI denotes the concentration at which net growth stops. Read a low TGI as greater sensitivity of the cells. Usually GI50 stands for the concentration at which growth is held to half of that of the control.

As for `NC(=O)NCc1c(C(N)=O)ncn1Cc1ccccc1`, the TGI in experiment [1], in experiment [2], in experiment [3], in experiment [4], in experiment [5] and in experiment [6] was > 100 µM in each case.
Regarding `CCCCCCCCCCCCCCCCCCOc1ccccc1CC(=O)OCC[N+]1(C)CCCC1`, in experiment [7], the GI50 was 3000 nM and the TGI was 17 µM.
For `COc1ccc(OC)c2c(C(=O)O)c(Cc3ccccc3)ccc12`, the TGI in experiment [1], in experiment [2], in experiment [4], in experiment [5] and in experiment [6] was > 100 µM in each case.
As for `Cc1ncc(CCCN(C)C)cc1Nc1ncc2c(n1)-c1ccc(C(F)(F)F)cc1NC(=S)C2`, in experiment [7], the GI50 was 814 nM and the TGI was 33.8 µM.
Take `CCCCCCCCCCCC(=O)OCC1OC(OC)C(NC(=O)N(CCCl)N=O)C(O)C1O` (stereo not drawn): the TGI in experiment [1] was 26.4 µM; in experiment [2] it was 30.6 µM; in experiment [4], 36.8 µM; in experiment [5] it was > 100 µM; in experiment [6], 27.6 µM.
Turning to `CC(=O)N[C@H]1CSSC[C@@H](C(N)=O)NC(=O)[C@H](C(C)C)NC(=O)[C@H](C)NC(=O)[C@H](Cc2cnc[nH]2)NC1=O`, in experiment [7], the GI50 was > 100000 nM and the TGI is > 100 µM.
For `Cn1c2ccccc2c(=O)c2ccc(Cl)cc21`, the TGI in experiment [7] and in experiment [8] was > 10 µM in each case.
For the compound `COc1cc(/C=C(\C#N)c2ccccc2)cc(OC)c1`, the TGI in experiment [1], in experiment [3], in experiment [4], in experiment [5] and in experiment [6] was > 100 µM throughout.
As to `O=C1NC(=O)C(CC2CCCCCCCCCCC2=O)C(=O)N1` (stereo not drawn), the TGI in experiment [8] was > 100 µM.
For `O=C1CC2c3ccccc3CCC2c2ccccc21` (stereo not drawn), the TGI in experiment [7] was > 100 µM; in experiment [8], 21.4 µM.
As for `CCN(CC)c1ccc(N=Nc2ccc(-c3nc4ccc[n+](C)c4s3)cc2)cc1`, the TGI in experiment [1] was determined as 17.9 µM; in experiment [2], 13.5 µM; in experiment [3] it was 31.6 µM; in experiment [4] it was 19.9 µM; in experiment [5] it was 10.6 µM.
With `O=c1cc(NC2CCN(CCCc3ccccc3)CC2)c2cc(Cl)ccc2o1`, in experiment [7], the GI50 is 12500 nM and the TGI was 38.4 µM.
As to `Nc1nc(F)nc2c1ncn2C1OC(CO)C(O)C1O` (stereo not drawn), the GI50 in experiment [7] was > 56000 nM. The TGI in experiment [7] and in experiment [8] was > 100 µM in each case.
As to `CN(C)CCN1C(=O)c2ccc3c4c(ccc(c24)C1=O)C(=O)N(CCN=C=S)C3=O`, in experiment [7], the 50% growth inhibitory concentration (GI50) was 29.9 nM and the TGI was 0.165 µM.
Taken in the same sequence, the figures for `C[C@H](O)C(=O)N1CCC(CCn2c(Sc3cc4c(cc3Br)OCO4)nc3c(N)ncnc32)CC1` were 2150 nM and > 100 µM.
For `ClCC[N+]12CC[N+](CCCl)(CC1)C2`, the TGI in experiment [7] and in experiment [8] was > 100 µM in each case.
As to `CCOc1cc(C(C)(C)C)ccc1C1=N[C@@](C)(c2ccc(Cl)cc2)[C@@](C)(c2ccc(Cl)cc2)N1C(=O)N1CCN(CCCS(C)(=O)=O)CC1`, in experiment [7], the GI50 was 9210 nM and the TGI stood at 61.4 µM.
On the same counts, the results for `O=c1cccc(C#CC#CC2=CCCCC2)o1` are 2730 nM and 14.8 µM.
Regarding `COc1ccc2nc(NC(=O)C(=O)C(C#N)c3ccc([N+](=O)[O-])cc3)sc2c1` (stereo not drawn), the TGI in experiment [1], in experiment [2], in experiment [3], in experiment [4] and in experiment [5] was > 100 µM throughout.
As for `COc1ccc(/C=C/C(=O)C(CC2CCC2)C(=O)/C=C/c2ccc(OC)c(OC)c2)cc1OC`, in experiment [7], the GI50 was 1390 nM and the TGI came out at 4.44 µM.
On to `C=CCc1ccc(Oc2cc(CC=C)c3c(c2O)O[C@@H](CO)[C@H]3c2ccc(O)c(-c3cc(CC=C)ccc3O)c2)cc1`, for which the TGI in experiment [1] is 90.7 µM; in experiment [2], > 100 µM; in experiment [3] it was > 100 µM; in experiment [4] it was 93.5 µM; in experiment [5], > 100 µM.
With `O=S(=O)(Nc1cc(Sc2cccc3cccnc23)c(O)c2ccccc12)c1ccccc1`, in experiment [7], the GI50 was 1560 nM and the TGI stood at 4.79 µM.
Taken in the same sequence, the figures for `CCn1c(SCc2ccc(C)cc2)nnc1-c1nn(-c2ccc(Cl)cc2Cl)c(-c2ccc(Cl)cc2)c1C` were 428 nM and 10.1 µM.
`Clc1ccc2c(c1)-c1c3c(nn1-c1ccccc1)-c1ccccc1SC3O2` (stereo not drawn): the TGI in experiment [1], in experiment [2], in experiment [3], in experiment [4], in experiment [5] and in experiment [6] was > 100 µM each time.
As for `COc1cccc2c(=O)c3c(sc12)c(N1CCNCC1)nc1ccccc13`, in experiment [7], the GI50 is 1900 nM and the TGI was 4.57 µM.
With `CN(C)c1cc[c]([Sn]([c]2ccc(N(C)C)cc2)([c]2ccc(N(C)C)cc2)[c]2ccc(N(C)C)cc2)cc1`, the GI50 is 3.09 µM in experiment [1]; 4.76 µM in experiment [2]; 3.82 µM in experiment [3]; 4.3 µM in experiment [4]; 5.17 µM in experiment [5]. Moreover, the TGI in experiment [1] is 12.9 µM; in experiment [2], 16.4 µM; in experiment [3] it was 11.5 µM; in experiment [4] it was 14.8 µM; in experiment [5] it was 24.4 µM.
As to `CCc1nc(C(N)=O)c(Nc2ccc(N3CCC(N4CCN(C)CC4)CC3)c(OC)c2)nc1NC1CCOCC1`, in experiment [7], the GI50 is 13200 nM and > 10000 nM and 13400 nM; the TGI was 30 µM and > 10 µM and 32.7 µM.
